Experimental data reported in US8563742B2, “Substituted aminothiazole derivatives, pharmaceutical compositions, and methods of use” (High Point Pharmaceuticals, LLC, priority 2008, dated 2013).

Experiments:
[1] = target: T1, human MC-4R (Homo sapiens, UniProt P32245); assay: Biological Assay: inhibition of AgRP functional interaction with MC-4R in presence of αMSH (cAMP production); format: cell-based; conditions: HEK293 cells expressing human MC-4R, AgRP83-132 and αMSH present; read-out: Average EC50 (nM) in Biological Assay
T1 construct: expressed in transfected cells
In short: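 HEK293 cells stably expressing human MC-4R (20,000/well) in EBSS/HEPES pH 7.4 with 0.5 mM IBMX. Compounds preincubated 30 min at room temperature with human AgRP83-132, then cells added and stimulated with αMSH 30 min at 37 °C. Intracellular cAMP measured after lysis; inhibition of AgRP seen as increased cAMP.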

[2] = Stability in Liver Microsomes (human); format: in vitro ADME; conditions: 1 μM, 0.5 mg protein/mL, NADPH, 60 minutes, 37° C., pH 7.4
Experimental: (§1) Various compounds were tested for their stability in human, monkey, dog, rat, and mouse liver microsomes. At a final concentration of 1 μM, compounds were incubated with either human, monkey, dog, rat, or mouse liver microsomes (0.5 mg protein/mL) in the presence of an NADPH-solution for 60 minutes at 37° C., pH 7.4 in phosphate buffer. Incubations were performed in duplicate. Reactions were terminated by the addition of methanol. The incubation solution was vortexed and transferred into a 96-well plate. The plate was sealed and centrifuged at approximately 3500 rpm for approximately 10 minutes. After centrifugation, the plate was loaded into 96-well plate autosampler and analyzed by LC/MS. Values are reported as percent of compound remaining after 1 hour.

[3] = Stability in Liver Microsomes (monkey); format: in vitro ADME; conditions: 1 μM, 0.5 mg protein/mL, NADPH, 60 minutes, 37° C., pH 7.4
Experimental: as §1

[4] = Stability in Liver Microsomes (dog); format: in vitro ADME; conditions: 1 μM, 0.5 mg protein/mL, NADPH, 60 minutes, 37° C., pH 7.4
Experimental: as §1

[5] = Stability in Liver Microsomes (rat); format: in vitro ADME; conditions: 1 μM, 0.5 mg protein/mL, NADPH, 60 minutes, 37° C., pH 7.4
Experimental: as §1

[6] = Stability in Liver Microsomes (mouse); format: in vitro ADME; conditions: 1 μM, 0.5 mg protein/mL, NADPH, 60 minutes, 37° C., pH 7.4
Experimental: as §1

[7] = Pharmacokinetic screening in rats (plasma and brain); conditions: rat, 5 mg/kg PO; for concentration at 2 h: male, Sprague Dawley, po, 5 mg/kg, 2 hour time point; for Brain - 24 hours AUC (h * ng/g): 24 hour study
Experimental: Pharmacokinetic screening in rats was performed on various compounds to measure brain to plasma ratio at 2 hour time point. […] The parameters for the pharmacokinetic protocol were as follows.
Amount of compound: 5 mg/kg
Species: Rat; Strain: Sprague Dawley; Sex: Male
Diet Status: Overnight fasting
Number of Animals (n) for each time point: 2
Formulation: 0.1% CMC, 0.25% Tween 80 in distilled water
Each formulation was administered once by oral gavage using a gavage needle (18G-3, BrainTree Scientific, INC, USA) attached to a syringe. The dose volume was 5 mL/kg for all animals. The actual volume administered to each animal was calculated and adjusted based on the most recent body weight.
Blood samples (approximately 300 μL whole blood) was collected from each animal via tail vein except for terminal blood samples. Terminal blood samples were collected via cardiac puncture. All samples were collected into tubes containing lithium heparin (Multivette 600 LH-Gel, Sarstedt, Newton, N.C., USA). Following collection, the tubes were placed in refrigerator (maximum 30 minutes) or until centrifugation under refrigeration (at 2 to 8° C.) at 5000 g for 7 minutes. Each harvested plasma sample was then transferred into 1.2 mL polypropylene tubes, on the 96-Well Plate according to the 96-Well Plate plasma sample map and kept in freezer. Plasma samples were then analyzed for test substances.
Brain samples were collected immediately after the rats were euthanised at designated time points. Brain samples were rinsed with saline, blotted dry, and weighed. Brain samples were placed into individual containers and kept in freezer (−20° C.). Brain samples were then analyzed for test articles.
After analysis, all the plasma results were reported as ng/mL and brain sample results are reported as ng/g.

[8] = plasma, Plasma - 2 hours (ng/mL)

T1 sequence (P32245 whole entry): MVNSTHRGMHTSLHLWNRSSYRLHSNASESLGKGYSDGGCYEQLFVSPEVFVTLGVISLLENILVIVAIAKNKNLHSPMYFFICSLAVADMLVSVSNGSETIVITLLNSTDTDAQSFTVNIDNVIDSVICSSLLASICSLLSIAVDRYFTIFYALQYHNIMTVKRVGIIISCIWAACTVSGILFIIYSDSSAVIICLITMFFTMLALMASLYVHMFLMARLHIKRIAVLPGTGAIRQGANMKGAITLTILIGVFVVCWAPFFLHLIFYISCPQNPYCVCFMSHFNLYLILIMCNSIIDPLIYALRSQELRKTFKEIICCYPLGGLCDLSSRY

SMILES: CCCC1CCC(c2csc(N(CCC(=O)O)Cc3ccc(C)s3)n2)CC1 (stereo not shown) [Example 21, 3-{(5-Methyl-thiophen-2-ylmethyl)-[4-(4-propyl-cyclohexyl)-thiazol-2-yl]-amino}-propionic acid]
- EC50 [1]: 372 nM
- Stability in Liver Microsomes (% remaining after 1 hour incubation) Human [2]: 84%
- Stability in Liver Microsomes (% remaining after 1 hour incubation) Monkey [3]: 47%
- Stability in Liver Microsomes (% remaining after 1 hour incubation) Dog [4]: 78%
- Stability in Liver Microsomes (% remaining after 1 hour incubation) Rat [5]: 66%
- Stability in Liver Microsomes (% remaining after 1 hour incubation) Mouse [6]: 86%

SMILES: CC(C)c1ccc(-c2csc(N(CCC(=O)[O-])Cc3cccs3)n2)cc1.[Na+] [Reference Compound A, Sodium 3-{[4-(4-isopropyl-phenyl)-thiazol-2-yl]-thiophen-2-ylmethyl-amino}-propionate, reference compound]
- Stability in Liver Microsomes (% remaining after 1 hour incubation) Human [2]: 40%
- Stability in Liver Microsomes (% remaining after 1 hour incubation) Monkey [3]: 2%
- Stability in Liver Microsomes (% remaining after 1 hour incubation) Dog [4]: 2%
- Stability in Liver Microsomes (% remaining after 1 hour incubation) Rat [5]: 54%
- Stability in Liver Microsomes (% remaining after 1 hour incubation) Mouse [6]: 52%
- concentration at 2 h ([7]; brain, Brain - 2 hours (ng/g)): 1140 ng/g
- concentration at 2 h [7, 8]: 3850 ng/mL
- Brain - 24 hours AUC (h * ng/g) [7]: + (values less than 5,000 h*ng/g)

SMILES: Cc1ccc(CN(CCC(=O)[O-])c2nc(C3CCC(c4ccc(F)cc4)CC3)cs2)s1.[Na+] (stereo not shown) [Example 61, Sodium; 3-[{4-[4-(4-fluoro-phenyl)-cyclohexyl]-thiazol-2-yl}-(5-methyl-thiophen-2-ylmethyl)-amino]-propionate]
- EC50 [1]: 246 nM
- Stability in Liver Microsomes (% remaining after 1 hour incubation) Human [2]: 68%
- Stability in Liver Microsomes (% remaining after 1 hour incubation) Monkey [3]: 13%
- Stability in Liver Microsomes (% remaining after 1 hour incubation) Dog [4]: 84%
- Stability in Liver Microsomes (% remaining after 1 hour incubation) Rat [5]: 40%
- Stability in Liver Microsomes (% remaining after 1 hour incubation) Mouse [6]: 74%

SMILES: Cc1ccc(CN(CCC(=O)O)c2nc(C3CCC(C)(C)CC3)cs2)s1 [Example 55, 3-[[4-(4,4-Dimethyl-cyclohexyl)-thiazol-2-yl]-(5-methyl-thiophen-2-ylmethyl)-amino]-propionic acid]
- EC50 [1]: 70 nM
- Stability in Liver Microsomes (% remaining after 1 hour incubation) Human [2]: 49%
- Stability in Liver Microsomes (% remaining after 1 hour incubation) Monkey [3]: 78%
- Stability in Liver Microsomes (% remaining after 1 hour incubation) Dog [4]: 80%
- Stability in Liver Microsomes (% remaining after 1 hour incubation) Rat [5]: 64%
- Stability in Liver Microsomes (% remaining after 1 hour incubation) Mouse [6]: 68%

SMILES: Cc1ccc(CN(CCC(=O)O)c2nc([C@H]3CC[C@H](c4ccccc4)CC3)cs2)s1 [Example 38, Sodium; 3-{(5-methyl-thiophen-2-ylmethyl)-[4-(trans-4-phenyl-cyclohexyl)-thiazol-2-yl]-amino}-propionate]
- EC50 [1]: 145 nM
- Stability in Liver Microsomes (% remaining after 1 hour incubation) Human [2]: 71%
- Stability in Liver Microsomes (% remaining after 1 hour incubation) Monkey [3]: 70%
- Stability in Liver Microsomes (% remaining after 1 hour incubation) Dog [4]: 93%
- Stability in Liver Microsomes (% remaining after 1 hour incubation) Rat [5]: 90%
- Stability in Liver Microsomes (% remaining after 1 hour incubation) Mouse [6]: 99%
- concentration at 2 h [7, 8]: 8400 ng/mL
- Brain - 24 hours AUC (h * ng/g) [7]: ++++ (values above 20,000 h*ng/g)

SMILES: Cc1cc(CN(CCC(=O)[O-])c2nc(C3CCC(c4ccccc4)CC3)cs2)c(C)s1.[Na+] (stereo not shown) [Example 40, Sodium; 3-{(2,5-dimethyl-thiophen-3-ylmethyl)-[4-(4-phenyl-cyclohexyl)-thiazol-2-yl]-amino}-propionate]
- EC50 [1]: 219 nM
- Stability in Liver Microsomes (% remaining after 1 hour incubation) Human [2]: 61%
- Stability in Liver Microsomes (% remaining after 1 hour incubation) Monkey [3]: 85%
- Stability in Liver Microsomes (% remaining after 1 hour incubation) Dog [4]: 36%
- Stability in Liver Microsomes (% remaining after 1 hour incubation) Rat [5]: 67%
- Stability in Liver Microsomes (% remaining after 1 hour incubation) Mouse [6]: 90%
